Reference: patent US20130252956A1, “METHODS OF TREATING CANCER” (priority 2010, published 2013)

What was measured:
[1] = Phase I dose escalation/expanded cohort study of oral foretinib in HCC patients: safety, dose-limiting toxicities, maximum tolerated dose; conditions: human, in vivo
Method: Each treatment cycle will consist of 21 consecutive days. Subjects enrolled in this study will receive oral foretinib administered once daily. Blood samples for PK analysis will be obtained before and after dosing on Days 1 and 15 of Treatment Period 1 in both the Dose-Escalation and Expanded Cohort Phases. For subjects in the Expanded Cohort Phase, no dose will be administered on Days 2 and 3 of Treatment Period 1 to allow the pharmacokinetics of foretinib to be assessed over a 72 hour interval after the first dose. Subjects will continue to receive study drug until disease progression or withdrawal from study because of unacceptable toxicity or other reasons (e.g., withdrawal of consent, noncompliance). Disease progression is defined as objective disease progression according to mRECIST and/or clinical progression (e.g. emergence of significant new disease-related symptoms and/or significant deterioration of pre-existing disease-related symptoms requiring treatment; or deterioration of ECOG performance status by 2 units—see Appendix 3). For the purpose of the final analysis, the duration of the study is planned to be 2 years after enrollment is completed.
Patients with measurable unresectable/metastatic HCC, no prior sorafenib or other multi-kinase inhibitors, ECOG PS 0-1, adequate organ function and Child-Pugh grade A are eligible for enrolment. […]

[2] = test system: unresectable/metastatic HCC; assay: Antitumour activity (time to progression by modified RECIST) in patients dosed at the maximum tolerated dose; type: in vivo, human; conditions: 38 evaluable patients at the maximum tolerated dose (30 mg OD); 95% confidence intervals (2.8, not achieved)
Source text: To enable a more accurate description of the potential clinical benefit of foretinib in patients with HCC, the method of tumor evaluation was changed to incorporate the mRECIST criteria for HCC as proposed by Llovet et al (Llovet, et al. 2008 supra) and further described by Lencioni & Llovet (Lencioni & Llovet Modified RECIST (mRECIST) Assessment for Hepatocellular Carcinoma. Seminars in Liver Disease. 2010; 30:52-60) in addition to the standard RECIST assessment.
The primary endpoint for assessing antitumor activity will be response rate (CR+PR) according to mRECIST (Lencioni, 2010), assessed by independent, central, radiological review, in subjects with advanced (unresectable and/or metastatic) HCC treated with foretinib at the maximum tolerated dose. […]
Tumor response for subjects with measurable lesions should be assessed routinely as specified in the table below. Serial CT-scans (preferred) or MRI will be evaluated for response (CR or PR) and SD according to mRECIST (Lecioni, 2010) and RECIST 1.0 (Therasse, et al. New guidelines to evaluate the response to treatment in solid tumors. European Organization for Research and Treatment of Cancer, National Cancer Institute of the United States, National Cancer Institute of Canada. J Natl Cancer Inst. 2000; 92:205-16.). […]

first-line advanced HCC = first-line advanced HCC patients treated with sorafenib; 95% CI (2.6, 3.6); cited from earlier work

Compound	Dose-limiting toxicities [1]	Dose-limiting toxicities (renal failure, proteinuria), patients affected [1]	Median time-to-progression using modified-RECIST [2] [months]	Median time to progression (first-line advanced HCC) [months]
COc1cc2c(Oc3ccc(NC(=O)C4(C(=O)Nc5ccc(F)cc5)CC4)cc3F)ccnc2cc1OCCCN1CCOCC1 [foretinib, N^1-{3-fluoro-4-[(6-(methyloxy)-7-{[3-(4-morpholinyl)propyl]oxy}-4-quinolinyl)oxy]phenyl}-N^1-(4-fluorophenyl)-1,1-cyclopropanedicarboxamide]	no dose limiting toxicities were observed	2/6	4.5	
CNC(=O)c1cc(Oc2ccc(NC(=O)Nc3ccc(Cl)c(C(F)(F)F)c3)cc2)ccn1 [sorafenib, 4-[4-[[4-chloro-3-(trifluoromethyl)phenyl]carbamoylamino]phenoxy]-N-methyl-pyridine-2-carboxamide]				2.8
